Experimental data taken from PubChem BioAssay (NCI).
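Where inhibition never reached the appropriate level, the endpoint shown equals the highest concentration tested. Otherwise, values were interpolated linearly from a five-concentration, 48-hour dose response in 96-well plates. The concentration for full growth arrest is given as TGI.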

Assays:
Experiment in all cases: NCI anticancer screen, dose series, 48 h
OVCAR-5 ovarian = system: OVCAR-5 ovarian
RPMI-8226 leukemia = system: RPMI-8226 leukemia
M14 melanoma = system: M14 melanoma
COLO 205 colon = system: COLO 205 colon
ACHN renal = system: ACHN renal
SN12C renal = system: SN12C renal
K-562 leukemia = system: K-562 leukemia
SK-MEL-5 melanoma = system: SK-MEL-5 melanoma
CCRF-CEM leukemia = system: CCRF-CEM leukemia
SF-295 CNS = system: SF-295 CNS
MDA-MB-231 breast = system: MDA-MB-231 breast
NCI-H460 lung = system: NCI-H460 lung
MOLT-4 leukemia = system: MOLT-4 leukemia
NCI-H522 lung = system: NCI-H522 lung
HCT-116 colon = system: HCT-116 colon
OVCAR-4 ovarian = system: OVCAR-4 ovarian
HT29 colon = system: HT29 colon
RXF 393 renal = system: RXF 393 renal
HS 578T breast = system: HS 578T breast

Row | SMILES | TGI (OVCAR-5 ovarian) | TGI (RPMI-8226 leukemia) | TGI (M14 melanoma) | TGI (COLO 205 colon) | TGI (ACHN renal) | TGI (SN12C renal) | TGI (K-562 leukemia) | TGI (SK-MEL-5 melanoma) | TGI (CCRF-CEM leukemia) | TGI (SF-295 CNS) | TGI (MDA-MB-231 breast) | TGI (NCI-H460 lung) | TGI (MOLT-4 leukemia) | TGI (NCI-H522 lung) | TGI (HCT-116 colon) | TGI (OVCAR-4 ovarian) | TGI (HT29 colon) | TGI (RXF 393 renal) | TGI (HS 578T breast)
1 | O=c1[nH]c(=S)c2cc3c(=S)[nH]c(=O)n(CCC(c4ccccc4)(c4ccccc4)c4ccccc4)c3nc2n1CCC(c1ccccc1)(c1ccccc1)c1ccccc1 | > 100 µM | > 100 µM | > 100 µM | > 100 µM | > 100 µM | > 100 µM | > 100 µM | > 100 µM | 27.7 µM | > 100 µM | > 100 µM | > 100 µM | 84.1 µM | > 100 µM | > 100 µM | > 100 µM |  |  | 
2 | COC(=O)c1c(C)ccc2c(O)c3c(cc12)C(=O)c1c2c(cc(O)c1C3=O)C1(C)OC(C)(O2)C(O)C(N(C)C)C1O (stereo not given) | 7.19 µM |  | 10.4 µM | 7.56 µM | 4.67 µM | 12.1 µM |  | 17.3 µM |  | 25.1 µM | 3.21 µM |  | 3.2 µM | 2.33 µM | 1.84 µM | 8.81 µM | 2.01 µM |  | 
3 | O=C1C=C(N2CCCC2)C(=O)c2c(O)ccc(O)c21 | > 10 µM |  | > 10 µM |  | > 10 µM | > 10 µM | > 10 µM | > 10 µM | 5.19 µM | > 10 µM | > 10 µM | > 10 µM | > 10 µM |  |  |  | > 10 µM | > 10 µM | > 10 µM
4 | CC(=O)c1cc2c(s1)C(=O)c1scc(C(C)=O)c1C2=O | 4.14 µM | 1.08 µM |  | 3.54 µM | 0.828 µM | 0.426 µM | 3.54 µM | 1.53 µM | 0.59 µM | 2.15 µM | 0.809 µM | 1.27 µM |  | 1.28 µM | 1.12 µM | 0.454 µM | 4.2 µM | 1.54 µM | 
5 | COC(=O)C1=C(O)C(C(=O)OC)[C@]2(O)[C@H](C(=O)OC)[C@H]1C[C@@H](c1cccc(OC)c1)[C@H]2C(=O)OC (stereo not given in full) | 66.4 µM | > 100 µM | > 100 µM | > 100 µM | 40.4 µM | 65.7 µM | > 100 µM | > 100 µM |  | > 100 µM | 78.3 µM | 65.7 µM | > 100 µM | 33.3 µM | 65.6 µM | 96.4 µM | > 100 µM | 43.1 µM | 55 µM
6 | O=C1c2cc([N+](=O)[O-])cnc2S(=O)(=O)N1c1ccc(Br)cc1 | > 100 µM | > 100 µM | > 100 µM | > 100 µM | > 100 µM | > 100 µM |  | > 100 µM | > 100 µM | > 100 µM | > 100 µM | > 100 µM | > 100 µM | > 100 µM | > 100 µM | > 100 µM | > 100 µM |  | > 100 µM
7 | COc1ccccc1C1=C2C(=O)N(C)C(c3ccccc3OC)=C2C(=O)N1C | > 100 µM |  | > 100 µM | > 100 µM | > 100 µM | > 100 µM | > 100 µM | > 100 µM | > 100 µM | > 100 µM | > 100 µM | > 100 µM | > 100 µM | > 100 µM | > 100 µM | > 100 µM | > 100 µM |  | 97.1 µM
8 | CSc1nc2c(c(=O)n1C)N=C(c1ccc(Cl)cc1)CC(c1ccccc1)N2 (stereo not given) | > 100 µM | 47.8 µM | 34.7 µM | 39.2 µM | 44.6 µM | 39.4 µM | 53.2 µM | 33.7 µM | 72.6 µM | 53.1 µM | 27.3 µM |  | 53.9 µM | 47.9 µM | > 100 µM | 23.7 µM | 31.6 µM | 75.4 µM | 
9 | O=C(Nc1ccccc1)c1cc(S(=O)(=O)Nc2n[nH]c(=O)[nH]2)c(SSc2cc(Cl)c(C(=O)Nc3ccccc3)cc2S(=O)(=O)Nc2n[nH]c(=O)[nH]2)cc1Cl | > 100 µM | > 100 µM | > 100 µM | > 100 µM | > 100 µM | > 100 µM | > 100 µM | > 100 µM | > 100 µM | > 100 µM | > 100 µM | > 100 µM | > 100 µM | > 100 µM | > 100 µM | > 100 µM | > 100 µM |  | > 100 µM
10 | N#CC(c1nc2ccccc2s1)c1nc(Cl)ncc1Br (stereo not given) | > 100 µM | 81.1 µM | > 100 µM | > 100 µM | > 100 µM | > 100 µM |  | 43.5 µM |  | > 100 µM | > 100 µM | > 100 µM | > 100 µM | 62.1 µM | 69.8 µM | > 100 µM | > 100 µM | 90.3 µM | 
11 | Cc1ccc(S(=O)(=O)N(CC(O)c2ccccc2)c2ccccc2F)cc1 (stereo not given) | 41 µM | 39 µM | 31.9 µM | 28.8 µM | 40.1 µM | 34.3 µM | 44.5 µM | 29.6 µM | 64.5 µM | 37.9 µM | 36.6 µM | 32.5 µM |  | 32 µM | 26.4 µM | 27.4 µM | 34.4 µM |  | 41.1 µM
12 | CCOC(=O)c1[nH]cnc1/N=N/N(C)N | > 100 µM | > 100 µM | > 100 µM | > 100 µM | > 100 µM | > 100 µM |  | > 100 µM |  | > 100 µM | > 100 µM | > 100 µM | > 100 µM | 78.7 µM | > 100 µM | > 100 µM | > 100 µM | > 100 µM | > 100 µM
13 | CCC(C)NC(=S)N/N=C(\C)c1ccccn1 (stereo not given) | > 100 µM |  |  | > 100 µM | 10.3 µM | > 100 µM |  |  |  | > 33.2 µM | > 100 µM | > 100 µM | 0.14 µM | 51.4 µM | > 100 µM | > 100 µM | > 100 µM | 26.9 µM | > 100 µM
